In publication PMC10363480 (Plant Communications, 2023):
“And” between values parts separate entries of the source, which are not always exact repeats. Equal values may be shown once. “Also recorded” adds a separate entry of the source.

Columns and labels:
Assay type in all cases: cell-based
[1] = system: mitochondria or chloroplast of Chlamydomonas reinhardtii; test: Subcellular localization of Venus reporter by epifluorescence microscopy (manual targeting assignment); conditions: for mitochondrial targeting upon addition of mTP-C (P^m): C-terminal element of CAG2-mTP added to the named peptide, Figure 2 rows C and D; for mitochondrial localization upon addition of cTP-C (P^c): C-terminal element of RCA1-cTP added; for organelle targeting (Venus reporter localization) by the construct as labelled: peptide inserted upstream of Venus, stable Chlamydomonas lines, epifluorescence, MitoTracker / chlorophyll / pyrenoid co-localization, three independent insertion lines; for Localisation: peptide-Venus reporter construct expressed in Chlamydomonas reinhardtii, manual targeting assignment (Neither / Mitochondria / Chloroplast / Dual; partial = partial targeting)
Procedure, shortened: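 Targeting peptide variants fused to Venus reporter, transformed into Chlamydomonas wild-type T222+ (CC-5101); three independent transformant lines per construct. Localization assigned manually from epifluorescence images using chlorophyll autofluorescence for chloroplast and 0.1 μM MitoTracker Red CMXRos (30 min) for mitochondria. Automated segmentation used for validation.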

[2] = system: Escherichia coli strain BW25113; test: Minimum inhibitory concentration / antimicrobial activity growth assay; conditions: growth assay with dilutions of the AMP, Escherichia coli strain BW25113, Figure 3D
[3] = system: mitochondria or chloroplast of Chlamydomonas reinhardtii; test: Automated image segmentation / quantification of Venus signal (pyrenoid/chlorophyll, mitochondria/cell); conditions: for automated image quantification values: unmodified HA-RAMPs, Supplemental Figures 2E, 2F, 5A, 9A
Description: A custom ImageJ Macro was written to enable automated image segmentation of epifluorescence micrographs in Fiji. In brief, in a given micrograph, fluorescence intensities were normalized, and individual cells were detected using marker-controlled watershed from the MorphoLibJ library ([Legland et al., 2016]). For each cell, auto-thresholding the chlorophyll channel using the Huang method was used to generate a chlorophyll mask. Separately, the chlorophyll channel was subjected to a series of morphological filters and Gaussian blurring followed by auto-thresholding to finally detect round holes between 0.1 and 5 μm within the ensuing binary image to be saved as a pyrenoid mask. In MitoTracker images, the MitoTracker channel was subjected to morphological filtering followed by auto-thresholding with Otsu to generate a mitochondrial mask. Venus channel intensities were recorded for each compartment. For each cell, rotated images containing binary masks as extra channels were saved. Data were compiled, analyzed, and plotted in R v.3.6.1 (https://www.r-project.org/) using RStudio 2022.07.2+576 (https://www.rstudio.com/).
Automated Image Analysis corroborates targeting
To assess subcellular Venus localisation independently of our manual targeting assignment, 2202 3-channel images containing Venus, chlorophyll and brightfield channels, and 557 4-channel images containing an additional MitoTracker channel, were subjected to automated, quantitative […]
image analysis (Fig. S2).
In the absence of Venus, low chlorophyll autofluorescence is visible in the Venus channel; in the absence of a presequence, Venus accumulates in the cytoplasm, targeting neither to the mitochondria nor to the chloroplast. When equipped with the chimeric B15Kc presequence, Venus […]
previously using confocal microscopy and biochemistry on isolated organelles (Garrido et al., When targeted to the chloroplast, Venus not only colocalizes with chlorophyll but also accumulates within the pyrenoid. The pyrenoid can be detected as a region of lower chlorophyll fluorescence at the base of the cup-shaped chloroplast, as visualized in Fig. S2B where the pyrenoid is labelled fluorescently using an RBCS-Venus fusion protein. Given that chlorophyll autofluorescence renders colocalization of Venus channel signal with the chlorophyll channel potentially misleading in constructs with low Venus accumulation, we chose to focus on evaluating Venus signal within the pyrenoid for automated image segmentation (Fig. S2C inset). Rather than comparing pyrenoidal Venus to the entire cell, we opted for a comparison with Venus in the rest of the chloroplast excluding the pyrenoid (the chlorophyll region), since strong Venus channel signal from within the pyrenoid should generate high values for a pyrenoid/chlorophyll ratio when Venus is in the chloroplast and low values when Venus is elsewhere. This approach was able to separate chloroplast-targeting constructs very effectively from constructs where Venus localized elsewhere in the cell (Fig. S2C). Only a small region of overlap between the two categories remains (highlighted in blue). Among constructs targeting elsewhere, constructs found in this overlap region typically show low Venus accumulation, e.g. the no-Venus control falls also falls in this region (black diamond). […]

[4] = Figure 2, bare name = K and R versions

## ALWMTLLKKVLKAAAKAALNAVLVGANA [DS4, dermaseptin S4, HA-RAMP antimicrobial peptide]
[1]; [4]
  chloroplast targeting when combining cTP-N with cTP-C (^cP^c): failed to show any chloroplast targeting; also recorded: fail to target the chloroplast
[1]; manual assignment printed per cell line of Table S3, Fig.S 7 panel a, Nter sans, Cation K, Cter sans, pODC 82, colony 16, strain 2
  Targeting: none
[2]
  minimum inhibitory concentration after replacing all Ks with Rs, compared with the natively K-rich sequence: increased
[3]; Venus channel signal in the pyrenoid relative to the chlorophyll region, single-cell values, image 1, 3 channels, Cation K, no TP elements, strain 2
  Venus.ratio_pyr: 0.9978 and 0.9365
[3]; normalized so that construct averages range from 0 to 1, single-cell values, image 1, 3 channels, Cation K, no TP elements, strain 2
  Venus.ratio_pyr.norm: 0.09363
[3]; single-cell values (Cell 0, 1, 10, 11, 12), image 1, 3 channels, Nter sans, Cation K, Cter sans, strain 2
  Venus.ratio_cp: 1.038 and 1.1 and 1.124 and 1.055 and 1.047

## FLPLLAGLAANFLPKIFCKITRKC [B1E, brevinin-1E, HA-RAMP antimicrobial peptide, reference compound]
[1]; 15 N-terminal residues of RCA1-cTP added, no C-terminal element, Figure 2
  mitochondrial targeting upon sole addition of cTP-N (^cP): enabled mitochondrial targeting
[1]; [4]
  targeting when combining cTP-N with mTP-C (^cP^m): dual targeting
[2]
  minimum inhibitory concentration after replacing all Ks with Rs, compared with the natively K-rich sequence: increased

## GIGKFLHSAKKFGKAFVGEIMNS [MII, magainin 2, HA-RAMP antimicrobial peptide, reference compound]
[1]; bare name = K and R versions
  mitochondrial targeting upon addition of mTP-C (P^m): continued targeting
[1]; Figure 2 rows E and F
  mitochondrial localization upon addition of cTP-C (P^c): compatible with mitochondrial localization
[1]
  organelle targeting (Venus reporter localization) by the construct as labelled: only partial
[2]
  minimum inhibitory concentration after replacing all Ks with Rs, compared with the natively K-rich sequence: increased

## MVNYGNGVSCSKTKCSVNWGIITHQAFRVTSGVASGLTQTAESFRGVSSQFFDAPNGPSVKQVLIEDEW [B15.K.m]
[1]
  Localisation: Neither

## MVNYGNGVSCSKTKCSVNWGIITHQAFRVTSGVASGSVRRAQLQVVASSRKQMGRWRSIDAGVDASDDQ [B15.K.c]
[1]
  Localisation: Chloroplast

## MVNYGNGVSCSRTRCSVNWGIITHQAFRVTSGVASG [B15.R]
[1]
  Localisation: Neither

## MVNYGNGVSCSRTRCSVNWGIITHQAFRVTSGVASGLTQTAESFRGVSSQFFDAPNGPSVKQVLIEDEW [B15.R.m]
[1]
  Localisation: Neither

## MVNYGNGVSCSRTRCSVNWGIITHQAFRVTSGVASGSVRRAQLQVVASSRKQMGRWRSIDAGVDASDDQ [B15.R.c]
[1]
  Localisation: Chloroplast

## MWLSKTAKKLENSAKKRISEGIAIAIKGGSR [CP3.K]
[1]
  Localisation: Neither

## MWLSKTAKKLENSAKKRISEGIAIAIKGGSRLTQTAESFRGVSSQFFDAPNGPSVKQVLIEDEW [CP3.K.m]
[1]
  Localisation: Neither

## MWLSKTAKKLENSAKKRISEGIAIAIKGGSRSVRRAQLQVVASSRKQMGRWRSIDAGVDASDDQ [CP3.K.c]
[1]
  Localisation: Neither

## MWLSRTARRLENSARRRISEGIAIAIRGGSR [CP3.R]
[1]
  Localisation: Mitochondria (partial)

## MWLSRTARRLENSARRRISEGIAIAIRGGSRLTQTAESFRGVSSQFFDAPNGPSVKQVLIEDEW [CP3.R.m]
[1]
  Localisation: Mitochondria

## MWLSRTARRLENSARRRISEGIAIAIRGGSRSVRRAQLQVVASSRKQMGRWRSIDAGVDASDDQ [CP3.R.c]
[1]
  Localisation: Chloroplast

## SFLTTFKDLAIKAAKSAGQSVLSTLSCKLSNTC [B2I, brevinin-2ISb, HA-RAMP antimicrobial peptide, reference compound]
[1]; bare name = K and R versions
  mitochondrial targeting upon addition of mTP-C (P^m): continued targeting
[1]; Figure 2 rows E and F
  mitochondrial localization upon addition of cTP-C (P^c): compatible with mitochondrial localization
[1]
  organelle targeting (Venus reporter localization) by the construct as labelled: mitochondrial localization

## VNYGNGVSCSKTKCSVNWGIITHQAFRVTSGVASG [B15, bacillocin 1580, HA-RAMP antimicrobial peptide, reference compound]
[1]; C-terminal element of RCA1-cTP added to the named peptide, Figure 2 rows E and F, bare name = K and R versions
  chloroplast targeting upon addition of cTP-C (P^c): enabled chloroplast targeting
[1]; [4]
  targeting when combining cTP-N with mTP-C (^cP^m): chloroplast targeting

## cecropin-P3 [CP3K, reference compound]
[1]; [4]
  chloroplast targeting when combining cTP-N with cTP-C (^cP^c): fail to target the chloroplast
  targeting when combining cTP-N with mTP-C (^cP^m): chloroplast targeting
[3]
  automated image quantification values: high image quantification values

## ranatuerin-2G [R2GK, reference compound]
[1]; bare name = K and R versions
  mitochondrial targeting upon addition of mTP-C (P^m): enabled partial mitochondrial targeting
[1]; [4]
  chloroplast targeting when combining cTP-N with cTP-C (^cP^c): fail to target the chloroplast
[3]
  automated image quantification values: high image quantification values
